Entries after “also recorded” stand apart in the source; their conditions may differ. Like-named read-outs stand apart in the source and are kept apart here.
Tests used:
[1] = test system: 4NQO-induced tumor organoids (Aldh2*2 vs Aldh2*1); assay: CellTiter-Glo 3D cell viability assay of 4NQO-induced tumor organoids with Aldh2 SNP genotypes; type: cell-based, mice; conditions: for Response of Aldh2*2 (Aldh2 mutant) tumor organoids to chemotherapy agent compared with Aldh2*1 (wild-type) tumor organoids: treatment for 3 days, cisplatin 80 μM, 5FU data not shown
Description: 4NQO-induced tumor organoids with indicated Aldh2 SNP genotypes were analyzed by H&E staining for cellular abnormality in FIG. 5A and by […] CellTiter-Glo® 3D cell viability assays, following treatment for 3 days with cisplatin (80 μM) along with or without 10 μM Alda-1, an Aldh2 activator in FIG. 5B. *, p<0.01 vs. Aldh21; ns, not significant (n=6).
Aldh2*2 is a common single nucleotide polymorphism (SNP) strongly associated with OSCC. To evaluate the role of Aldh2*2 in 4NQO-induced neoplastic cells in 3D organoids, Aldh2*2 mice expressing mutant Aldh2 protein (Aldh2^E487K) were compared with wild-type Aldh2*1 (control) mice. 3D organoids were analyzed from tumors detected in mice sacrificed at 26 weeks from the start of 4NQO treatment. […] Thus, individuals with Aldh2*2 SNP may respond to chemotherapy better despite its strong association with a risk of OSCC tumor development. It was hypothesized that pharmacological Aldh2 inhibition by Disulfiram (Antabuse, used a treatment of chronic alcoholism) augments the chemotherapy effects in OSCC in individuals with Aldh2*1. Thus, patient-derived 3D organoids may serve as a platform for new translational applications in personalized medicine for therapy of OSCC and potentially other squamous cell carcinomas.
Oral 3D organoids (FIG. 6): 3D organoids will be generated according to the published protocols (Kasagi et al. 2018; Natsuizaka et al. 2017; Whelan et al. 2017). In 24-well plates, 2,000 cells are seeded in Matrigel (50 μl/well). Organoids grow within 7-10 days to form 50-100 μm spherical structures (100% success, n=34 for human normal biopsies) (Kasagi et al. 2018). For quality control purposes, an OSCC cell line will be used (Kijima et al. 2019). Time-lapse analysis of growing organoids will be done under light microscopy to determine their average size and morphology. organoid formation rate (OFR; the percentage of the number of organoids formed at day 10 per total number of cells seeded at day 0) will be determined. Organoids will then be processed for DNA, RNA and flow cytometry, and histology. […]

EAC PDO = assay: IC50 from drug-treated EAC PDO, mean organoid size by Celigo Imaging Cytometer; type: cell-based, human; conditions: 72 h-exposure, R squares 0.5874 (Cisplatin) and 0.8652 (Paclitaxel), read-out: IC50 (organoid size normalized by vehicle-treated control as 100%)
Description: EAC PDO size were evaluated by Celigo Imaging Cytometer measuring the mean organoid size following 72 h-exposure to Cisplatin and Paclitaxel at indicated final concentrations. Organoid size was normalized by vehicle-treated control as 100%.
To evaluate organoid growth, 3D organoid structures were monitored during culture, and their size is documented by a conventional phase-contrast inverted microscope or highthroughput cell imaging instruments (e.g., Celigo Image Cytometer, Nexcelom Bioscience) with the capacity of automated multi-well rapid imaging and quantitative analysis of organoid size, number and structure.
• 1. Grow organoids in 24-well or 96-well plates (Basic Protocols 1 and 2). Use at least three (3) wells per condition as biological replicates. • 2. Acquire phase-contrast images (FIGS. 37A-37B) manually via a conventional microscopy with a camera. Use ImageJ software to measure the diameter of at least 5 organoids per well. Alternatively, Celigo imaging cytometer can not only acquire phase-contrast images but calculate mean organoid area for all organoids imaged. Such assays can be performed in conjunction with drug treatment (FIG. 38) (Basic Protocol 6). • 3. Repeat step 2 every other day. • 4. Generate growth curves by plotting organoid diameter or area at each time point.
• 1. Remove the spent culture medium by aspiration. • 2. […]

esophageal 3D organoids = assay: Modeling reactive epithelium in esophageal organoids with IL-13; type: cell-based, human; conditions: IL-13 stimulation (10 ng/ml in protocol), compared to untreated organoids
Description: Reactive changes in esophageal epithelium are induced by multiple soluble factors secreted by immune cells and fibroblasts. The function of these factors in disease development can be modeled and evaluated in esophageal organoids. Here we provide an example of such an experiment by treating normal esophageal organoids with interleukin 13 (IL-13) to model reactive changes induced in esophageal epithelium by eosinophils; however, any bioactive compounds (cytokines, antibodies, small molecule inhibitors) can be utilized to model pathologic conditions and/or treatment strategies. Representative images of esophageal organoids treated with IL-13, as well as gene expression profiles of select EoE-relevant genes (Blanchard et al., 2007; Kasagi et al., 2019), can be found in FIGS. 35A-35B.
Additional Materials (see also Basic Protocol 1) • Interleukin 13 (IL-13; R&D Systems, cat. no. 213-ILB-005) • Reconstituted IL-13 (reconstitute lyophilized IL-13 to 100 μg/ml in PBS, aliquot, and store at −80° C.; avoid repeated freeze-thaw cycles) • Growing culture of esophageal organoids (see Basic Protocol 1) • 1. Remove spent medium. • 2. Dispense 500 μl KSFMC containing 10 ng/ml IL-13. • 3. Observe organoid growth under a phase-contrast microscope. • 4. Harvest organoids for histology and RNA isolation, as described in Basic Protocol 3. • 5. Evaluate changes in morphology and gene expression.

O=c1[nH]cc(F)c(=O)[nH]1 [5FU, 5-Fluorouracil]
Response of Aldh2*2 (Aldh2 mutant) tumor organoids to chemotherapy agent compared with Aldh2*1 (wild-type) tumor organoids [1]: better than Aldh2*1

O=C(NCc1ccc2c(c1)OCO2)c1c(Cl)cccc1Cl [Alda1]
Effect on cisplatin-mediated cytotoxicity in Aldh2*2 tumor 3D organoids ([1]; 10 μM Alda-1 with cisplatin 80 μM, 3 days): cisplatin-mediated cytotoxicity was reversed

N.N.[Cl][Pt][Cl] [Cisplatin]
IC50 (EAC PDO): 7.1 µM | Response of Aldh2*2 (Aldh2 mutant) tumor organoids to chemotherapy agent compared with Aldh2*1 (wild-type) tumor organoids [1]: better than Aldh2*1

CC(=O)O[C@H]1C(=O)[C@@]2(C)[C@H]([C@H](OC(=O)c3ccccc3)[C@]3(O)C[C@H](OC(=O)[C@H](O)[C@@H](NC(=O)c4ccccc4)c4ccccc4)C(C)=C1C3(C)C)[C@]1(OC(C)=O)CO[C@@H]1C[C@@H]2O [Paclitaxel]
IC50 (EAC PDO; Homo sapiens): 2.3 µM

IL-13: eosinophilic esophagitis (EoE)-relevant cytokine, recombinant (R&D Systems)
Reactive epithelial change (basal cell hyperplasia) in organoids (esophageal 3D organoids): induces BCH-like changes; also recorded: Basal cell hyperplasia is evident

Source: patent US20220317115A1, “3D ORGANOIDS FOR PERSONALIZED ORAL CANCER THERAPY” (THE TRUSTEES OF COLUMBIA UNIVERSITY IN THE CITY OF NEW YOURK, priority 2019, published 2022)
